Experiment: recombinant barcode read abundance after kanamycin selection (control-corrected) (log10(CPM+1)); higher = more efficient recombination; sequences stand for … in AGTGCAGAGAAAATCGGCCAGTTTTCTCTGCCTGCAGTCCGCATGCCGT…AGATTTATGCAGCGGACTGCCTTTCTCCCAAAGTGATAAACCGGACAGTATCATGGACCGGTTTTCCCGGTAATCCGTATTTGCAAGGTTGGTTTCACT; site = the 11-nt target
How it was run: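 A promoter, a target, a barcode and the first 104 bridge RNA bases under J23119 made up each oligo. Oligos were Gibson-cloned into a vector bearing the other 73 bp and a T7-inducible recombinase, then co-electroporated into E. coli with a donor plasmid and plated in duplicate on chloramphenicol/ampicillin LB agar (control) or chloramphenicol/ampicillin/kanamycin with 0.1 mM IPTG. Recombination efficiency is the averaged, control-corrected counts per million of recombinant-junction barcodes. Reported values are log10(CPM+1).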
For “TCAAACCCTTGGGTTCTAACCTGTTGCGG (site TCCAACCCTCC)”, the “recombinant barcode read abundance (log10)” value was 0.292. With “TCAAACCCTTGGGTTCTAACCTGTTGCGG (site TCGAACCCTCC)” the “recombinant barcode read abundance (log10)” value was 0.0489. With “TCAAACCCTTGGGTTCTAACCTGTTGCGG (site TCTAACCCTCC)” the “recombinant barcode read abundance (log10)” value was 0.279. With “TCAAGACCTTGGGTTCTAACCTGTTGCCG (site TCAAGACCTAG)” the “recombinant barcode read abundance (log10)” value was 0.179. In the case of “TCAAGACCTTGGGTTCTAACCTGTTGCCG (site TCAAGACCTCG)”, the “recombinant barcode read abundance (log10)” value is reported as 0.461. For “TCACAGGCTTGGGTTCTAACCTGTTGCCG (site TCACAGGCTCG)”, the “recombinant barcode read abundance (log10)” value was 0.361. With “TCACAGGCTTGGGTTCTAACCTGTTGCCG (site TCTCAGGCTCG)” the “recombinant barcode read abundance (log10)” value was 0.377. With “TCACGGACTTGGGTTCTAACCTGTTGCCT (site TCACGGACTAG)” the “recombinant barcode read abundance (log10)” value was 1.1. For “TCACGGACTTGGGTTCTAACCTGTTGCCT (site TCCCGGACTAG)”, the “recombinant barcode read abundance (log10)” value was 0.101. With “TCACGGACTTGGGTTCTAACCTGTTGCCT (site TCGCGGACTAG)” the “recombinant barcode read abundance (log10)” value was 0.0352. In the case of “TCACGGACTTGGGTTCTAACCTGTTGCCT (site TCTCGGACTAG)”, the “recombinant barcode read abundance (log10)” value is reported as 0.101. In the case of “TCACGTCCTTGGGTTCTAACCTGTTGCGT (site TCACGTCCTAA)”, the “recombinant barcode read abundance (log10)” value is reported as 0.0145. In the case of “TCACGTCCTTGGGTTCTAACCTGTTGCGT (site TCACGTCCTAC)”, the “recombinant barcode read abundance (log10)” value is reported as 1.3. In the case of “TCACGTCCTTGGGTTCTAACCTGTTGCGT (site TCACGTCCTAG)”, the “recombinant barcode read abundance (log10)” value is reported as 0.0596. For “TCACGTCCTTGGGTTCTAACCTGTTGCGT (site TCACGTCCTAT)”, the “recombinant barcode read abundance (log10)” value was 0.295. In the case of “TCACGTCCTTGGGTTCTAACCTGTTGCTT (site TCACGTCCTAA)”, the “recombinant barcode read abundance (log10)” value is reported as 0.137. For “TCACGTCCTTGGGTTCTAACCTGTTGCTT (site TCACGTCCTAC)”, the “recombinant barcode read abundance (log10)” value was 0.0167. In the case of “TCACGTCCTTGGGTTCTAACCTGTTGCTT (site TCACGTCCTAG)”, the “recombinant barcode read abundance (log10)” value is reported as 0.262. For “TCACGTCCTTGGGTTCTAACCTGTTGCTT (site TCACGTCCTAT)”, the “recombinant barcode read abundance (log10)” value was 0.145. With “TCAGAATCTTGGGTTCTAACCTGTTGCCT (site TCAGAATCTAG)” the “recombinant barcode read abundance (log10)” value was 0.667. For “TCAGAATCTTGGGTTCTAACCTGTTGCCT (site TCAGCATCTAG)”, the “recombinant barcode read abundance (log10)” value was 0. In the case of “TCAGAATCTTGGGTTCTAACCTGTTGCCT (site TCAGGATCTAG)”, the “recombinant barcode read abundance (log10)” value is reported as 0.371. For “TCAGAATCTTGGGTTCTAACCTGTTGCCT (site TCAGTATCTAG)”, the “recombinant barcode read abundance (log10)” value was 0.0618. In the case of “TCAGGGACTTGGGTTCTAACCTGTTGCAG (site TCAGGGACTCT)”, the “recombinant barcode read abundance (log10)” value is reported as 2.45. With “TCAGGGACTTGGGTTCTAACCTGTTGCAG (site TCGGGGACTCG)” the “recombinant barcode read abundance (log10)” value was 0.375. With “TCAGGTACTTGGGTTCTAACCTGTTGCCT (site ACAGGTACTAG)” the “recombinant barcode read abundance (log10)” value was 0.0983. In the case of “TCAGGTACTTGGGTTCTAACCTGTTGCCT (site CCAGGTACTAG)”, the “recombinant barcode read abundance (log10)” value is reported as 0.0713. With “TCAGGTACTTGGGTTCTAACCTGTTGCCT (site GCAGGTACTAG)” the “recombinant barcode read abundance (log10)” value was 0.0652. In the case of “TCAGGTACTTGGGTTCTAACCTGTTGCCT (site TCAGGTACTAG)”, the “recombinant barcode read abundance (log10)” value is reported as 0.163. In the case of “TCAGTATCTTGGGTTCTAACCTGTTGCCT (site TCAGAATCTAG)”, the “recombinant barcode read abundance (log10)” value is reported as 0.145. In the case of “TCAGTATCTTGGGTTCTAACCTGTTGCCT (site TCAGCATCTAG)”, the “recombinant barcode read abundance (log10)” value is reported as 0.533. For “TCAGTATCTTGGGTTCTAACCTGTTGCCT (site TCAGGATCTAG)”, the “recombinant barcode read abundance (log10)” value was 0.107. In the case of “TCAGTATCTTGGGTTCTAACCTGTTGCCT (site TCAGTATCTAG)”, the “recombinant barcode read abundance (log10)” value is reported as 1.4. For “TCATCTCCTTGGGTTCTAACCTGTTGCCT (site ACATCTCCTAG)”, the “recombinant barcode read abundance (log10)” value was 0.188. In the case of “TCATCTCCTTGGGTTCTAACCTGTTGCCT (site CCATCTCCTAG)”, the “recombinant barcode read abundance (log10)” value is reported as 0.0972. With “TCATCTCCTTGGGTTCTAACCTGTTGCCT (site GCATCTCCTAG)” the “recombinant barcode read abundance (log10)” value was 0.0477. For “TCATCTCCTTGGGTTCTAACCTGTTGCCT (site TCATCTCCTAG)”, the “recombinant barcode read abundance (log10)” value was 0.092. With “TCATGGGCTTGGGTTCTAACCTGTTGCAG (site AGGGTTCCTAA)” the “recombinant barcode read abundance (log10)” value was 0.457. With “TCATGGGCTTGGGTTCTAACCTGTTGCAG (site TCATGGGCTCT)” the “recombinant barcode read abundance (log10)” value was 1.92. For “TCCAAAGCTTGGGTTCTAACCTGTTGCTA (site TCCAAAGCTTA)”, the “recombinant barcode read abundance (log10)” value was 0.249. In the case of “TCCAAAGCTTGGGTTCTAACCTGTTGCTA (site TCCCAAGCTTA)”, the “recombinant barcode read abundance (log10)” value is reported as 0.141. With “TCCAAAGCTTGGGTTCTAACCTGTTGCTA (site TCCGAAGCTTA)” the “recombinant barcode read abundance (log10)” value was 0.294. With “TCCAAAGCTTGGGTTCTAACCTGTTGCTA (site TCCTAAGCTTA)” the “recombinant barcode read abundance (log10)” value was 0.251. With “TCCAACACTTGGGTTCTAACCTGTTGCGG (site TCCAAACCTCC)” the “recombinant barcode read abundance (log10)” value was 0.00935. With “TCCAACACTTGGGTTCTAACCTGTTGCGG (site TCCAACACTCC)” the “recombinant barcode read abundance (log10)” value was 1.31. With “TCCAACCCTTGGGTTCTAACCTGTTGCGG (site TCAAACCCTCC)” the “recombinant barcode read abundance (log10)” value was 0.0107. In the case of “TCCAACCCTTGGGTTCTAACCTGTTGCGG (site TCCAACCCTCC)”, the “recombinant barcode read abundance (log10)” value is reported as 1.78. With “TCCAACCCTTGGGTTCTAACCTGTTGCGG (site TCGAACCCTCC)” the “recombinant barcode read abundance (log10)” value was 0.108. With “TCCAACCCTTGGGTTCTAACCTGTTGCGG (site TCTAACCCTCC)” the “recombinant barcode read abundance (log10)” value was 0.3. With “TCCAAGACTTGGGTTCTAACCTGTTGCAG (site ACCAAGACTCG)” the “recombinant barcode read abundance (log10)” value was 0.00865. With “TCCAAGACTTGGGTTCTAACCTGTTGCAG (site TCCAAGACTCT)” the “recombinant barcode read abundance (log10)” value was 1.72. For “TCCAAGCCTTGGGTTCTAACCTGTTGCAG (site TCCAAACCTCT)”, the “recombinant barcode read abundance (log10)” value was 0.694. For “TCCAAGCCTTGGGTTCTAACCTGTTGCAG (site TCCAACCCTCT)”, the “recombinant barcode read abundance (log10)” value was 0.0251. With “TCCAAGCCTTGGGTTCTAACCTGTTGCAG (site TCCAAGCCTCT)” the “recombinant barcode read abundance (log10)” value was 0.747. In the case of “TCCAAGCCTTGGGTTCTAACCTGTTGCAG (site TCCAATCCTCT)”, the “recombinant barcode read abundance (log10)” value is reported as 0.39. With “TCCAATCCTTGGGTTCTAACCTGTTGCAG (site TCCAAACCTCT)” the “recombinant barcode read abundance (log10)” value was 0.114. For “TCCAATCCTTGGGTTCTAACCTGTTGCAG (site TCCAACCCTCT)”, the “recombinant barcode read abundance (log10)” value was 0.0551. In the case of “TCCAATCCTTGGGTTCTAACCTGTTGCAG (site TCCAAGCCTCT)”, the “recombinant barcode read abundance (log10)” value is reported as 0.167. With “TCCAATCCTTGGGTTCTAACCTGTTGCAG (site TCCAATCCTCT)” the “recombinant barcode read abundance (log10)” value was 0.381. In the case of “TCCACACCTTGGGTTCTAACCTGTTGCCT (site TCCACAACTAG)”, the “recombinant barcode read abundance (log10)” value is reported as 0.122. For “TCCACACCTTGGGTTCTAACCTGTTGCCT (site TCCACACCTAG)”, the “recombinant barcode read abundance (log10)” value was 0.63. With “TCCACACCTTGGGTTCTAACCTGTTGCCT (site TCCACAGCTAG)” the “recombinant barcode read abundance (log10)” value was 0.0788. In the case of “TCCACACCTTGGGTTCTAACCTGTTGCCT (site TCCACATCTAG)”, the “recombinant barcode read abundance (log10)” value is reported as 0.0345. For “TCCACAGCTTGGGTTCTAACCTGTTGCCT (site TCCACAACTAG)”, the “recombinant barcode read abundance (log10)” value was 0. For “TCCACAGCTTGGGTTCTAACCTGTTGCCT (site TCCACACCTAG)”, the “recombinant barcode read abundance (log10)” value was 0.212. With “TCCACAGCTTGGGTTCTAACCTGTTGCCT (site TCCACAGCTAG)” the “recombinant barcode read abundance (log10)” value was 0.784. With “TCCACAGCTTGGGTTCTAACCTGTTGCCT (site TCCACATCTAG)” the “recombinant barcode read abundance (log10)” value was 0. For “TCCAGCACTTGGGTTCTAACCTGTTGCCT (site TCCAGCACTAG)”, the “recombinant barcode read abundance (log10)” value was 0.412. In the case of “TCCAGCACTTGGGTTCTAACCTGTTGCCT (site TCTGGCACTAG)”, the “recombinant barcode read abundance (log10)” value is reported as 0. With “TCCAGTACTTGGGTTCTAACCTGTTGCTT (site TCCAGTACTAA)” the “recombinant barcode read abundance (log10)” value was 0.0786. In the case of “TCCAGTACTTGGGTTCTAACCTGTTGCTT (site TCCGGTACTAA)”, the “recombinant barcode read abundance (log10)” value is reported as 0.0788. With “TCCATAACTTGGGTTCTAACCTGTTGCCT (site GGGGCGTCTCA)” the “recombinant barcode read abundance (log10)” value was 0.0285. In the case of “TCCATAACTTGGGTTCTAACCTGTTGCCT (site TCCATAACTAG)”, the “recombinant barcode read abundance (log10)” value is reported as 0.14. With “TCCATCCCTTGGGTTCTAACCTGTTGCCT (site TCAATCCCTAG)” the “recombinant barcode read abundance (log10)” value was 0.00792. In the case of “TCCATCCCTTGGGTTCTAACCTGTTGCCT (site TCCATCCCTAG)”, the “recombinant barcode read abundance (log10)” value is reported as 0.613. With “TCCATCCCTTGGGTTCTAACCTGTTGCCT (site TCGATCCCTAG)” the “recombinant barcode read abundance (log10)” value was 0.0154. With “TCCATCCCTTGGGTTCTAACCTGTTGCCT (site TCTATCCCTAG)” the “recombinant barcode read abundance (log10)” value was 0.116. In the case of “TCCCACTCTTGGGTTCTAACCTGTTGCCT (site TCACACTCTAG)”, the “recombinant barcode read abundance (log10)” value is reported as 0.158. With “TCCCACTCTTGGGTTCTAACCTGTTGCCT (site TCCCACTCTAG)” the “recombinant barcode read abundance (log10)” value was 1.56. In the case of “TCCCACTCTTGGGTTCTAACCTGTTGCCT (site TCGCACTCTAG)”, the “recombinant barcode read abundance (log10)” value is reported as 0.0564. In the case of “TCCCACTCTTGGGTTCTAACCTGTTGCCT (site TCTCACTCTAG)”, the “recombinant barcode read abundance (log10)” value is reported as 0.0682. With “TCCCAGTCTTGGGTTCTAACCTGTTGCTG (site TCCCAGTCTCA)” the “recombinant barcode read abundance (log10)” value was 0.635. In the case of “TCCCAGTCTTGGGTTCTAACCTGTTGCTG (site TCTCAGTCTCC)”, the “recombinant barcode read abundance (log10)” value is reported as 0.0317. With “TCCCATACTTGGGTTCTAACCTGTTGCAT (site AGTGGACCTGG)” the “recombinant barcode read abundance (log10)” value was 0.2. With “TCCCATACTTGGGTTCTAACCTGTTGCAT (site TCCCATACTAT)” the “recombinant barcode read abundance (log10)” value was 0.982. With “TCCCATTCTTGGGTTCTAACCTGTTGCCT (site TCCCATACTAG)” the “recombinant barcode read abundance (log10)” value was 0.197.

— the supplement of paper PMC11208160
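Also: IS621 recombinase and bridge RNA in Escherichia coli cells.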
